# Results: US20110190245A1, “NANOSUSPENSION WITH ANTIFUNGAL MEDICATION TO BE ADMINISTERED VIA INHALATION WITH IMPROVED IMPURITY PROFILE AND SAFETY” (priority 2008, published 2011)
# Tested on: A. fumigatus
# Test: Second experiment: survival of immune-suppressed balb-c mice infected intranasally with A. fumigatus conidia
# Format: in vivo, Aspergillus fumigatus
# Parameters: animals that had died by day 6 after infection: dose or concentration left out as unconfirmed
# Procedure: In a second experiment, male balb-c mice were utilized. The animals of all groups were immune-suppressed using 100 mg/kg body weight cyclophosphamide at day −4, −1, 0, 2, 5 and 8. On day −1, the animals received 100 mg/kg cyclophosphamide i.p. and 200 mg/kg cortisone acetate subcutaneous (24±2 hours before infection). Additionally, the animals were treated by inhalation of itraconazole using the same inhalation device as described in the study above. At day 0, the animals were infected intranasally with 2.5×104 A. fumigatus conidia.
# Additionally, one group of mice used as reference group was treated with Amphotericin B i.p. using 3 mg/kg daily.
# The drug effect was assessed as the number of surviving animals. As expected, 9 out of 12 control animals had already died on day 6 after infection and the remaining animals died with the exception of one until day 9. For animals treated as decribed above, i.e. using the 10% aerosol of itraconazole twice daily, a strong effect was seen.
smiles,measurement,setting,value
"C[C@@H]1[C@H](O)[C@@H](C)/C=C/C=C/C=C/C=C/C=C/C=C/C=C/[C@H](O[C@@H]2O[C@H](C)[C@@H](O)[C@H](N)[C@@H]2O)C[C@@H]2O[C@](O)(C[C@@H](O)C[C@@H](O)[C@H](O)CC[C@@H](O)C[C@@H](O)CC(=O)O[C@H]1C)C[C@H](O)[C@H]2C(=O)O [Amphothericin B, Amphotericin B]",animals that had died by day 6 after infection,"12 per group, control animals",3
same,animals that had died at the end of the observation period,"14 days observation, itraconazole 10% aerosol twice daily, Amphotericin B i.p. 3 mg/kg daily",9 out of 12
